{"source": "patent US8748407B2", "about": "(The Research Foundation for the State University of New York, priority 2010, dated 2014)", "format_in_all_cases": "cell-based", "key": {"[1]": {"target": "T1, GluN1a/2B (Rattus norvegicus, UniProt P35439+Q00960)", "T1 construct": "expressed in transfected cells; host or cells: HEK-293S", "T1 sequence (Q00960 27-1482, other chains not shown)": "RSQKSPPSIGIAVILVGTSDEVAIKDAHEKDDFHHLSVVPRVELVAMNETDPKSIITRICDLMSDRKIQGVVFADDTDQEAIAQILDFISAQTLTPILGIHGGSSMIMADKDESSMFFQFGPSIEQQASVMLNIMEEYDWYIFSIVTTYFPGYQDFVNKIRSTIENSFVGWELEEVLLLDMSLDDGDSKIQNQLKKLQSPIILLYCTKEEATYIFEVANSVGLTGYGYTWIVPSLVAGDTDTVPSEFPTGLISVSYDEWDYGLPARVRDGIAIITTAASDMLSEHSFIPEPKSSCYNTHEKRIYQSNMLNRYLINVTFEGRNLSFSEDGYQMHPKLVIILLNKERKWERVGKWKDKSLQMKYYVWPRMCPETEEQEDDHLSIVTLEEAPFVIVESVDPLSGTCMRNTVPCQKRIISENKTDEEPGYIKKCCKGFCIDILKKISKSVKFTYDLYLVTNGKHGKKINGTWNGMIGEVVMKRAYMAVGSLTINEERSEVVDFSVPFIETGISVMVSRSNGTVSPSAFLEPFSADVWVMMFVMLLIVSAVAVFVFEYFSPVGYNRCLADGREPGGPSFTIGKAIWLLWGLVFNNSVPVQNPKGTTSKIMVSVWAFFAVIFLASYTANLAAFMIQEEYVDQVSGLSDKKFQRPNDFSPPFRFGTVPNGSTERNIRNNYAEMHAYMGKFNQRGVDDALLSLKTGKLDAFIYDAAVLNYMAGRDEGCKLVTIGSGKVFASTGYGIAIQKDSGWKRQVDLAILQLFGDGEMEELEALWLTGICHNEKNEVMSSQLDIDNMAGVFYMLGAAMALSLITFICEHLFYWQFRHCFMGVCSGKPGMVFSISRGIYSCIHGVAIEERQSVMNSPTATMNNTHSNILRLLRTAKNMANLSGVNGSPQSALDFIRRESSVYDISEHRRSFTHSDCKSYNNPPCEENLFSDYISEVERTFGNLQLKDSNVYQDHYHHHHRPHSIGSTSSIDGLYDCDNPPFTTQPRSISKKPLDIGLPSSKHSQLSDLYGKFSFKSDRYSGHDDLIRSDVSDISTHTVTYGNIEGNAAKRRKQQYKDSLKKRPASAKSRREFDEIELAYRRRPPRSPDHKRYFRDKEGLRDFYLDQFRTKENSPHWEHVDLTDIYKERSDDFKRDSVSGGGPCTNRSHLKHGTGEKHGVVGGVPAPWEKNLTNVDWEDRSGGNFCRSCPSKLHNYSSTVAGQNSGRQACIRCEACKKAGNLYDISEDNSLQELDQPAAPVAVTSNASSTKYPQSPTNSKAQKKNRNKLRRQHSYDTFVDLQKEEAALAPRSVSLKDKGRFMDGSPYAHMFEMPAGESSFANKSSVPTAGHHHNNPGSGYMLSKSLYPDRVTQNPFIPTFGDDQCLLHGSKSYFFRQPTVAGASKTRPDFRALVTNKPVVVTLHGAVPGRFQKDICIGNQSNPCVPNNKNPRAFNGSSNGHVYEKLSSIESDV", "test": "Whole-cell current recording, NMDA receptor GluN1a/2B", "excerpt": "(§1) The original cDNAs in pBlueScript encoding rat GluA1, 2 and 3 AMPA receptors and GluK2 kainate receptor were kindly provided by Steve Heinemann. The GluA4 DNA plasmid was kindly provided by Peter Seeburg. The GluK1 plasmid was kindly provided by Geoffrey Swanson. The cDNAs of all three NMDA receptor subunits were gifts from John Woodward. All DNA plasmids were propagated using Escherichia coli host (DH5α) and purified using QIAGEN DNA purification kits.\n(§2) All of the receptors were transiently expressed in HEK-293S cell. HEK-293S cells were maintained in Dulbecco's modified Eagle's medium (DMEM) supplemented with 10% fetal bovine serum and 1% penicillin in a 37° C., 5% CO2, humidified incubator. Receptors were transiently transfected by using calcium phosphate or lipofectamine 2000 (Invitrogen). The DNA plasmids encoding green fluorescent protein (GFP) and T-antigen (TAg) were cotransfected in HEK-293 S cells. […]\n(§3) The procedure for whole-cell current recording to assay the inhibitory property of an RNA aptamer is known to those of skill in the art and has been previously described^7. […] The whole-cell current was recorded using an Axopatch-200B amplifier at a cutoff frequency of 2-20 kHz by a built-in, eight-pole Bessel filter and digitized at 5-50 kHz sampling frequency using a Digidata 1322A from Axon Instruments (Molecular Devices, Sunnyvale, Calif.). […]"}, "[2]": {"target": "T2, GluA4 (Rattus norvegicus, UniProt P19493)", "T2 construct": "expressed in transfected cells; host or cells: HEK-293S", "T2 sequence (P19493 21-902)": "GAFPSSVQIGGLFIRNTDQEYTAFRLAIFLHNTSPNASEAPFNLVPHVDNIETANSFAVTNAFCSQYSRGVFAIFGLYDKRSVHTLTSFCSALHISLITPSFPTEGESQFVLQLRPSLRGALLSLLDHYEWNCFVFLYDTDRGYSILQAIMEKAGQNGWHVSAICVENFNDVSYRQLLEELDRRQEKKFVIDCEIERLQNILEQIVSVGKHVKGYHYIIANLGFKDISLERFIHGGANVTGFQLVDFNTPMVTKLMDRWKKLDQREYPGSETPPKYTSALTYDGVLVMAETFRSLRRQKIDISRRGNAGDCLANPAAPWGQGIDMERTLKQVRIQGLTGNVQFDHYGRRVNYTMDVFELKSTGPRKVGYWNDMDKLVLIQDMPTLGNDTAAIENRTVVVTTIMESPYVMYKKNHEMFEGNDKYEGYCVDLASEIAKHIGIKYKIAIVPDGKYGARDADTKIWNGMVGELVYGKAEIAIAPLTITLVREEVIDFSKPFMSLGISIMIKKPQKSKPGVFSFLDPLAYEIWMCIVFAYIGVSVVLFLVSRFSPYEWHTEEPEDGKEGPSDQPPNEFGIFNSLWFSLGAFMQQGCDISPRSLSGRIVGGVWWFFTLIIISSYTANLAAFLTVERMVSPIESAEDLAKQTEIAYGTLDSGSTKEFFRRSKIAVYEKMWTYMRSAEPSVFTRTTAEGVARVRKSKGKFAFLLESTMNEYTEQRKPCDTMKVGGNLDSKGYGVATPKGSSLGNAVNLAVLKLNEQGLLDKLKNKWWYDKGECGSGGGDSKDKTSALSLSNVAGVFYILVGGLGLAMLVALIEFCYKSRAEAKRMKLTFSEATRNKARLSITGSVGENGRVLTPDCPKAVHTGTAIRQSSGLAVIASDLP", "test": "Whole-cell current recording, GluA4", "excerpt": "as §1\n(§4) All of the receptors were transiently expressed in HEK-293S cell. HEK-293S cells were maintained in Dulbecco's modified Eagle's medium (DMEM) supplemented with 10% fetal bovine serum and 1% penicillin in a 37° C., 5% CO2, humidified incubator. Receptors were transiently transfected by using calcium phosphate or lipofectamine 2000 (Invitrogen). The DNA plasmids encoding green fluorescent protein (GFP) and T-antigen (TAg) were cotransfected in HEK-293 S cells. GFP was used as a transfection marker for cell recording, and TAg was cotransfected to potentiate the receptor expression at the single-cell level^6. Transfected cells were allowed to grow for 48 hour before they were used for recording.\n(§5) The procedure for whole-cell current recording to assay the inhibitory property of an RNA aptamer is known to those of skill in the art and has been previously described^7. […] The extracellular buffer composition is described above (see “Receptor Preparation”). For recording of the NMDA channels, the intracellualr solution contained (in mM) 140 CsCl, 1 MgCl2, 0.1 EGTA, and 10 HEPES (pH 7.2 adjusted by […]), while the extracellular solution contained (in mM) 135 NaCl, 5.4 KCl, 1.8 CaCl2, 10 glucose and 5 HEPES (pH 7.2 adjusted by NaOH). In the extracellular buffer, 2 μM of glycine was added (glycine was the co-agonist of NMDA receptor)^2. All reagents including aptamer were dissolved in the corresponding extracellular buffer and used. […] The whole-cell current was recorded using an Axopatch-200B amplifier at a cutoff frequency of 2-20 kHz by a built-in, eight-pole Bessel filter and digitized at 5-50 kHz sampling frequency using a Digidata 1322A from Axon Instruments (Molecular Devices, Sunnyvale, Calif.). The pClamp 8 software (Molecular Devices) was used for data acquisition. All whole-cell recordings were at −60 mV and 22° C."}, "[3]": {"target": "T3, GluA2Qflip (Rattus norvegicus, UniProt P19491)", "T3 construct": "expressed in transfected cells; host or cells: HEK-293S", "T3 sequence (P19491 22-883 isoform P19491-2)": "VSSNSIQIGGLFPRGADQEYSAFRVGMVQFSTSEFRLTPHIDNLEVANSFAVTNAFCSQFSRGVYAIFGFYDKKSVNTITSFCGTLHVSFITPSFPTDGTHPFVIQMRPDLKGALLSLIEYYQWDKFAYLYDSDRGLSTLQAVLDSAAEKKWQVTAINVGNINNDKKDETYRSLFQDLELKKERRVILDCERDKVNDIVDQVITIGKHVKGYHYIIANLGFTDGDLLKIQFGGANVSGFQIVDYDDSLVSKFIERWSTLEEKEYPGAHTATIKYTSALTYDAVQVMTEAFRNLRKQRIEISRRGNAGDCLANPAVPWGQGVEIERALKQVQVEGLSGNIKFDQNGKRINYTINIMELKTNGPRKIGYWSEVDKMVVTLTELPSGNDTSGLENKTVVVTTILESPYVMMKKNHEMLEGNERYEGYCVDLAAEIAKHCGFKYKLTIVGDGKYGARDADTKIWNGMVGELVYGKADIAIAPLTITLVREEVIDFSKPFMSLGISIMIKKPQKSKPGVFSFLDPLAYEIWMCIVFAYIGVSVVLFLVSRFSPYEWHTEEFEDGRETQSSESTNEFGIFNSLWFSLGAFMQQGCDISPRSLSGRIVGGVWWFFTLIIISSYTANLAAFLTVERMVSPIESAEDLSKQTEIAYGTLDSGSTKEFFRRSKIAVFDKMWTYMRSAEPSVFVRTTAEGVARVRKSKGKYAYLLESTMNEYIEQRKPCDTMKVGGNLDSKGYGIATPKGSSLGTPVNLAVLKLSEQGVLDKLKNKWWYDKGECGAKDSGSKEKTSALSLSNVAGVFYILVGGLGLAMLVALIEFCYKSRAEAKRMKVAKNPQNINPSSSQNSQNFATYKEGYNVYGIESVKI", "test": "Whole-cell current recording, GluA2Qflip in HEK-293 cells", "excerpt": "as §1, §4, §5\nTo deliver AG56 to a HEK-293 cell, a “Ψ”-shaped flow device was used. […] In all experiments reported in this study, a 6-second preincubation flow protocol was used for full aptamer preincubation. […] The corrected current amplitude was used for data analysis.\nDetermination of KI,app by the ratio of the current amplitude in the absence and presence of inhibitor or A/A(I)—see FIG. 5 in the text. Equ. 10a and 10b were derived based on one inhibitor binding to the receptor. KI, app is the apparent inhibition constant for the inhibitor; other terms have been defined previously.\nUnder this condition, the inhibition constant for the closed-channel conformation was determined from the ratio of the amplitude according to equ. 10a and 10b. Likewise, at a saturating ligand concentration (i.e., L>>K1), the majority of the receptors were in the open-channel state. Consequently, the inhibition constant associated with the open-channel conformation was measured. The basis of using the two ligand concentrations that corresponded to ˜4% and ˜96% fraction of the open-channel receptor form^7 to determine the corresponding inhibition constant was a putative difference in inhibition constant between the closed-channel and the open-channel conformation. At those low and high ligand concentrations^7, the apparent inhibition constants obtained were considered pertinent to the closed-channel and the open-channel conformations, respectively. Examples of using the current amplitude to determine the inhibition constant for an inhibitor include our previous study of two 2,3-benzodiazepine derivatives with the GluA2Qflip AMPA receptor^15."}, "[4]": {"target": "T4, GluA3 (Rattus norvegicus, UniProt P19492)", "T4 construct": "expressed in transfected cells; host or cells: HEK-293S", "T4 sequence (P19492 23-888)": "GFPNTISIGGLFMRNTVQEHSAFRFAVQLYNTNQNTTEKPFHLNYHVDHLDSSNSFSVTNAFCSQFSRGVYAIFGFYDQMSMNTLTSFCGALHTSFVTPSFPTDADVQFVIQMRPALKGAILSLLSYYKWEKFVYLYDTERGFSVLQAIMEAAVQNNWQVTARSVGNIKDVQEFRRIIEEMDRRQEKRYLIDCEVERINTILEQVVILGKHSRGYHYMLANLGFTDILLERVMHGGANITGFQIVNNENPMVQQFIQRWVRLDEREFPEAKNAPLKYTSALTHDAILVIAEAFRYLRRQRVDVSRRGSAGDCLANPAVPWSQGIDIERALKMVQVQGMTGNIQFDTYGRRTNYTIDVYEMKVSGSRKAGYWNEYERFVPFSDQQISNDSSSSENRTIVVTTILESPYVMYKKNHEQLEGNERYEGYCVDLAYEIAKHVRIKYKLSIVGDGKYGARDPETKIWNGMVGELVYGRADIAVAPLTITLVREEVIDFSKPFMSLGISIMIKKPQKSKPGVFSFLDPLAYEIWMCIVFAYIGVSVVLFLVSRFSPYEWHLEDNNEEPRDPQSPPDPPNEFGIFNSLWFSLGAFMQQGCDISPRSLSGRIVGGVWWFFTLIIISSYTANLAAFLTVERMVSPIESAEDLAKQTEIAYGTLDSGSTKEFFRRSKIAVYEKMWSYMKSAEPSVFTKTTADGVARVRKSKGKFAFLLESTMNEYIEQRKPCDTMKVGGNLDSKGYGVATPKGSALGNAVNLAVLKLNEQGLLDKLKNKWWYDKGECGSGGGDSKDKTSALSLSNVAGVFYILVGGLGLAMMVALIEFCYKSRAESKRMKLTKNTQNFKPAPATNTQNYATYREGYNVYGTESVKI", "test": "Whole-cell current recording, GluA3", "excerpt": "as §1, §2, §3"}, "[5]": {"target": "T5, GluN1a/2A (Rattus norvegicus, UniProt P35439+Q00959)", "T5 construct": "expressed in transfected cells; host or cells: HEK-293S", "test": "Whole-cell current recording, NMDA receptor GluN1a/2A", "excerpt": "as §1, §2, §3"}, "[6]": {"system": "GluK1", "test": "Whole-cell current recording, kainate receptor GluK1", "excerpt": "as §1, §2, §3"}, "[7]": {"target": "T6, GluA1 (Rattus norvegicus, UniProt P19490)", "T6 construct": "expressed in transfected cells; host or cells: HEK-293S", "T6 sequence (P19490 19-907)": "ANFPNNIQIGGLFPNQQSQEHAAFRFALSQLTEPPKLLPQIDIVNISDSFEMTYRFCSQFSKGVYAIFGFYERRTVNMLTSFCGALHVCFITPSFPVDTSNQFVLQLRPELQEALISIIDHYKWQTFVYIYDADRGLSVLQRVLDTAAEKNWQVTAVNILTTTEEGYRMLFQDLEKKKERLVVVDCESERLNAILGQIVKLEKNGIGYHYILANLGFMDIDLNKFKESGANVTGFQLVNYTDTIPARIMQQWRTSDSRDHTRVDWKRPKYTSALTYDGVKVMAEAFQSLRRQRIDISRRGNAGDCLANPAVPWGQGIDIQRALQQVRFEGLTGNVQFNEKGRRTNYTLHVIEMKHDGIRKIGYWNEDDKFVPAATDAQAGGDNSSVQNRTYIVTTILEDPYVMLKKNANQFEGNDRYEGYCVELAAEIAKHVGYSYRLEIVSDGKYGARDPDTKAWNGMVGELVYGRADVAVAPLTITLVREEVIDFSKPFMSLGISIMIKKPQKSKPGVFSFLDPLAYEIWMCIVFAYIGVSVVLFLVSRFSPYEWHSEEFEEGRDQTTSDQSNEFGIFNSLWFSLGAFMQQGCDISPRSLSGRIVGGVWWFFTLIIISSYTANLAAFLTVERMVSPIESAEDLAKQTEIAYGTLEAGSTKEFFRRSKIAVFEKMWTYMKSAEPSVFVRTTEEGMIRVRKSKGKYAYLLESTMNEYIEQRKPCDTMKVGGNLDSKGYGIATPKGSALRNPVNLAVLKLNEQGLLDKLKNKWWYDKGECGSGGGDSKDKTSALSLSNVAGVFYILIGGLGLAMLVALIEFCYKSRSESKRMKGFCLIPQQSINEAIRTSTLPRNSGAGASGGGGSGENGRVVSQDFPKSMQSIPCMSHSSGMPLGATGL", "test": "Whole-cell current recording, GluA1", "excerpt": "as §1, §2, §3"}}}
{"substance": "AG56: 56-nucleotide truncated version of AG1407, RNA aptamer (GGGAGAUUGUGAAGCGUAGGCUCGAGUUUGUCCCGCGAGCCAAAGAUUCCAGACCC; RNA, backbone not given here)", "values": [{"measurement": "effect on NMDA receptor channel", "setting": "[1]", "value": "did not affect"}, {"measurement": "A/A(I)", "setting": "[2]; 0.5 μM AG56, 3 mM glutamate, open-channel GluA4", "value": "not significantly larger than 1.0"}, {"measurement": "A/A(I) ratio", "setting": "[2]; 1 μM AG56, 3 mM glutamate, open-channel GluA4", "value": 1.2}, {"measurement": "inhibition of the closed-channel conformation", "setting": "[2]; GluA4", "value": "no inhibitory effect"}, {"measurement": "inhibition of the open-channel conformation", "setting": "[2]; GluA4", "value": "weak"}, {"measurement": "inhibitory function of shorter versions of AG1407, based on A/A(I)", "setting": "[3]; GluA2Qflip", "value": "functional sequence"}, {"measurement": "inhibition of the open-channel conformation", "setting": "[3]; GluA2Qflip, high glutamate concentration", "value": "selectively inhibited the open-channel"}, {"measurement": "inhibition of the closed-channel conformation", "setting": "[3]; GluA2Qflip, low glutamate concentration", "value": "did not inhibit"}, {"measurement": "Ki", "setting": "[3]; open-channel conformation of GluA2Qflip, 3 mM glutamate, read-out: inhibition constant", "value": "950 ± 200", "unit": "nM"}, {"measurement": "inhibition of the closed-channel conformation", "setting": "[4]", "value": "no inhibitory effect"}, {"measurement": "inhibition of the open-channel conformation", "setting": "[4]", "value": "similarly inhibited the open-channel conformation"}, {"measurement": "effect on NMDA receptor channel", "setting": "[5]", "value": "did not affect"}, {"measurement": "effect on kainate receptor channel", "setting": "[6]", "value": "did not affect"}, {"measurement": "inhibition of the closed-channel conformation", "setting": "[7]", "value": "no inhibitory effect"}, {"measurement": "inhibition of the open-channel conformation", "setting": "[7]", "value": "similarly inhibited the open-channel conformation"}]}
